Test results taken from PubChem BioAssay AID2060506 (Molecular Pharmacology Branch, DTP, NCI, 2025).

System: 598228-144-R-J1-PDC complex spheroid viability
Assay: Anticancer human tumor 598228-144-R-J1-PDC patient-derived serous endometrial adenocarcinoma cell line growth inhibition [GQUAD]
Conditions: for IC50: curve of first compound; for viability, T/C: stronger effect = lower value
Summary of the method: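 Multi-cell-type spheroids of tumor cells with HUVEC and mesenchymal stem cells, treated with drug combinations. Concentrations descend in half-log steps from near clinical Cmax, or from 10 microM where Cmax is unknown; viability read-out.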

[1] = second compound 0.0316 µM, first compound 0.000999 µM
[2] = second compound 0.0316 µM, first compound 0.00316 µM
[3] = second compound 0.0316 µM, first compound 0.00999 µM
[4] = second compound 0.0316 µM, first compound 0.0316 µM
[5] = second compound 0.0316 µM, first compound 0.0999 µM
[6] = second compound 0.0316 µM, first compound 0.316 µM
[7] = second compound 0.1 µM, first compound 0.000999 µM
[8] = second compound 0.1 µM, first compound 0.00316 µM
[9] = second compound 0.1 µM, first compound 0.00999 µM
[10] = second compound 0.1 µM, first compound 0.0316 µM
[11] = second compound 0.1 µM, first compound 0.0999 µM
[12] = second compound 0.1 µM, first compound 0.316 µM
[13] = second compound 0.316 µM, first compound 0.000999 µM
[14] = second compound 0.316 µM, first compound 0.00316 µM
[15] = second compound 0.316 µM, first compound 0.00999 µM
[16] = second compound 0.316 µM, first compound 0.0316 µM
[17] = second compound 0.316 µM, first compound 0.0999 µM
[18] = second compound 0.316 µM, first compound 0.316 µM
[19] = second compound 1 µM, first compound 0.000999 µM
[20] = second compound 1 µM, first compound 0.00316 µM
[21] = second compound 1 µM, first compound 0.00999 µM
[22] = second compound 1 µM, first compound 0.0316 µM
[23] = second compound 1 µM, first compound 0.0999 µM
[24] = second compound 1 µM, first compound 0.316 µM
[25] = second compound 3.16 µM, first compound 0.000999 µM
[26] = second compound 3.16 µM, first compound 0.00316 µM
[27] = second compound 3.16 µM, first compound 0.00999 µM
[28] = second compound 3.16 µM, first compound 0.0316 µM
[29] = second compound 3.16 µM, first compound 0.0999 µM
[30] = second compound 3.16 µM, first compound 0.316 µM
[31] = second compound 10 µM, first compound 0.000999 µM
[32] = second compound 10 µM, first compound 0.00316 µM
[33] = second compound 10 µM, first compound 0.00999 µM
[34] = second compound 10 µM, first compound 0.0316 µM
[35] = second compound 10 µM, first compound 0.0999 µM
[36] = second compound 10 µM, first compound 0.316 µM
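Note: spheroids exposed to the agents for one week before reading.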
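Throughout, for viability, T/C: percent of vehicle DMSO control viability so 100% = untreated growth.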

In the case of `CC[C@@]1(O)C(=O)OCc2c1cc1n(c2=O)Cc2cc3c(CN(C)C)c(O)ccc3nc2-1` + Cc1[nH]c2ccc(F)cc2c1-c1nc2c3cccnc3c3ncccc3c2[nH]1, the IC50 (second compound 0.0316 µM) is reported as greater than 316 nM, the IC50 (second compound 0.1 µM) is reported as greater than 316 nM and the IC50 (second compound 0.316 µM) is reported as greater than 316 nM. The IC50 (second compound 1 µM) was 22.9 nM, the IC50 (second compound 3.16 µM) was less than 0.999 nM and the IC50 (second compound 10 µM) was 31 nM. It also gave a viability, T/C [1] of 106%, a viability, T/C [2] of 105% and a viability, T/C [3] of 93.5%. For the same molecule, the viability, T/C [4] was 90.7%, the viability, T/C [5] was 63.1% and the viability, T/C [6] was 71.5%. For the same molecule, the viability, T/C [7] was 104%, the viability, T/C [8] was 95.4% and the viability, T/C [9] was 84.4%. It also gave a viability, T/C [10] of 88.7%, a viability, T/C [11] of 58% and a viability, T/C [12] of 62.3%. It also gave a viability, T/C [13] of 86.8%, a viability, T/C [14] of 83.7% and a viability, T/C [15] of 61.9%. For the same molecule, the viability, T/C [16] was 64.6%, the viability, T/C [17] was 75% and the viability, T/C [18] was 52.3%. It also gave a viability, T/C [19] of 64.6%, a viability, T/C [20] of 76.8% and a viability, T/C [21] of 59.3%. For the same molecule, the viability, T/C [22] was 44.7%, the viability, T/C [23] was 53.4% and the viability, T/C [24] was 41.2%. It also gave a viability, T/C [25] of 39.1%, a viability, T/C [26] of 57.1% and a viability, T/C [27] of 39.9%. For the same molecule, the viability, T/C [28] was 35.7%, the viability, T/C [29] was 33.6% and the viability, T/C [30] was 31.4%. The viability, T/C [31] was 71.6%, the viability, T/C [32] was 58.9% and the viability, T/C [33] was 63.3%. For the same molecule, the viability, T/C [34] was 41.5%, the viability, T/C [35] was 50.1% and the viability, T/C [36] was 34.7%.

In the case of `CCc1c2c(nc3ccc(O)cc13)-c1cc3c(c(=O)n1C2)COC(=O)[C@]3(O)CC` + Cc1[nH]c2ccc(F)cc2c1-c1nc2c3cccnc3c3ncccc3c2[nH]1, the IC50 (second compound 0.0316 µM) is reported as 21 nM, the IC50 (second compound 0.1 µM) is reported as 13.9 nM and the IC50 (second compound 0.316 µM) is reported as 37.2 nM. For the same molecule, the IC50 (second compound 1 µM) was 2.57 nM, the IC50 (second compound 3.16 µM) was less than 0.999 nM and the IC50 (second compound 10 µM) was 2.09 nM. It also gave a viability, T/C [1] of 74.7%, a viability, T/C [2] of 73.5% and a viability, T/C [3] of 53.8%. It also gave a viability, T/C [4] of 42.9%, a viability, T/C [5] of 37.9% and a viability, T/C [6] of 13.8%. It also gave a viability, T/C [7] of 67%, a viability, T/C [8] of 67.6% and a viability, T/C [9] of 55.4%. For the same molecule, the viability, T/C [10] was 34.9%, the viability, T/C [11] was 31.3% and the viability, T/C [12] was 19.5%. It also gave a viability, T/C [13] of 75.9%, a viability, T/C [14] of 62.7% and a viability, T/C [15] of 66.3%. For the same molecule, the viability, T/C [16] was 53.4%, the viability, T/C [17] was 34.3% and the viability, T/C [18] was 21.4%. The viability, T/C [19] was 55%, the viability, T/C [20] was 47.3% and the viability, T/C [21] was 43%. The viability, T/C [22] was 37.9%, the viability, T/C [23] was 27.8% and the viability, T/C [24] was 17.8%. The viability, T/C [25] was 40.6%, the viability, T/C [26] was 36.1% and the viability, T/C [27] was 29.7%. For the same molecule, the viability, T/C [28] was 29.2%, the viability, T/C [29] was 13.1% and the viability, T/C [30] was 8.4%. It also gave a viability, T/C [31] of 57%, a viability, T/C [32] of 45.1% and a viability, T/C [33] of 38.8%. It also gave a viability, T/C [34] of 29.7%, a viability, T/C [35] of 24.1% and a viability, T/C [36] of 20.4%.
